Results reported in patent US9145436B2 (priority 2010, dated 2015).
Where two headings read alike, the source gives them in different places.

What was measured:
[1] = test system: IL-10 production in J774 cells; experiment: Cytokine production in stimulated J774 cells, IL-10 (ELISA); format: cell-based; settings: Normal (LPS 0.1 μg/mL)
Protocol: (§1) Various analogs were compared in vitro to determine key properties. Antibacterial effect was determined in representative Gram negative (E. coli) and positive (S. aureus) organisms using the method of example 16. Effects on lung inflammation were compared using the method of example 32. BALF (Bronchoalveolar Lavage Fluid) TNFa levels are determined by ELISA. In vitro toxicity is determined by growth inhibition of Jurkat lymphocytes in DMEM medium as determined using Alamar Blue reaction. Effects on cytokine production are determined in J774 cells stimulated with either LPS (0.1 μg/mL) or medium from J774 cells stimulated for 24 h with 0.2 μg/mL LPS. Cytokines are determined by ELISA and expressed as % DMSO control at 50 μM inhibitor concentration.

[2] = test system: Jurkat; experiment: Cytotoxicity of the substances (TC50), Jurkat; format: cell-based; settings: Jurkat cells
[3] = test system: Jurkat lymphocytes; experiment: In vitro toxicity: growth inhibition of Jurkat lymphocytes, Alamar Blue; format: cell-based; settings: DMEM medium
Protocol: as §1

[4] = test system: E. coli; experiment: Antibiotic dilution assay, E. coli; format: cell-based; settings: liquid medium, OD600, read-out: Bacterial IC 50 (μM) E. Coli
Protocol: (§2) The antibiotic activity of the compounds was determined via antibiotic dilution assay. After filling 100 μl growth medium into all the wells of a 96 well plate, the compounds were diluted from 1 mM to 0.010 μM. The growth control wells contained growth medium instead of inhibitory agents. The inhibitory control contained Compound 3 (200 μM). Suspensions of E. coli and B. pumilus in growth medium with an approximate OD600 of 0.03-0.04 were added to the diluted compounds, incubated for 6-8 hours on the shaker at 750 rpm and 37° C. until the growth control had reached an OD600 of about 0.6-0.8. The OD600 was then determined on a standard plate reader.
as §1

[5] = test system: BALF TNFa; experiment: Airway inflammation by inhaled LPS, BALF TNFa by ELISA; format: in vivo, DBA or Swiss female mice; settings: 30 minutes prior to LPS challenge
Protocol: as §1
Airway inflammation is induced by inhalation of solutions containing bacterial LPS. 10 μg per mouse is provided intranasally in phosphate buffered saline. 90 minutes after challenge, bronchioalveolar lavage fluid is recovered from the lung using PBS (0.5 mL) injected into the lung via the trachea and frozen prior to analysis for cytokines by ELISA. TNFa is the primary cytokine measured. Compound 2 and other test substances are dissolved in 0.02% citric acid in water, and the pH of the resulting solution is set to 6.2. Compounds are administered 30 minutes prior to challenge either as 25 μL solutions for intranasal use, or as 125 μL volumes for p.o. application in 25 g DBA or Swiss female mice. The results of said interventions include reduction of lung and/or plasma cytokines. Example data are recorded in FIG. 13.

[6] = test system: IL-12 production in J774 cells; experiment: Cytokine production in stimulated J774 cells, IL-12 (ELISA); format: cell-based; settings: Normal (LPS 0.1 μg/mL)
Protocol: as §1

[7] = test system: GM_CSF production in J774 cells; experiment: Cytokine production in stimulated J774 cells, GM-CSF (ELISA); format: cell-based; settings: Cond. (medium from J774 cells stimulated 24 h with 0.2 μg/mL LPS)
Protocol: as §1

[8] = test system: HeLa; experiment: Cytotoxicity of the substances (TC50), HeLa; format: cell-based; settings: HeLa cells
[9] = test system: TNFa production in J774 cells; experiment: Cytokine production in stimulated J774 cells, TNFa (ELISA); format: cell-based; settings: Normal (LPS 0.1 μg/mL)
Protocol: as §1

[10] = test system: S. aureus; experiment: Antibiotic dilution assay, S. aureus; format: cell-based; settings: liquid medium, OD600, read-out: Bacterial IC 50 (μM) S. Aureus
Protocol: as §2, §1

[11] = test system: bacteria; settings: relative to azithromycin; cited from earlier work

Compound | IC50 ([4]; Escherichia coli) [µM] | IC50 ([10]; Staphylococcus aureus) [µM] | IC50 [4] [µM] | IC50 [10] [µM] | Cytokine production in J774 cells as % DMSO control, IL-10 Normal 50 μM [1] [% DMSO control] | TC50 Jurkat [2] [µM] | Jurkat Cell toxicity Normal growth limit [3] [µM] | BALF TNFa (% Vehicle) 20 μmol/kg i.n. [5] [% Vehicle] | Cytokine production in J774 cells as % DMSO control, IL-12 Normal 50 μM [6] [% DMSO control] | Cytokine production in J774 cells as % DMSO control, GM_CSF Cond. 50 μM [7] [% DMSO control] | TC50 HeLa [8] [µM] | Cytokine production in J774 cells as % DMSO control, TNFa Normal 50 μM [9] [% DMSO control] | BALF TNFa (% Vehicle) 200 μmol/kg p.o. [5] [% Vehicle] | antibacterial effectiveness, fold less effective than the cladinosylated molecule [11]
CCC1OC(=O)C(C)C2(O)OC(C)(CC(C)CN(C)C(C)C(=O)C1(C)O)C(OC1OC(C)CC(N(C)C)C1O)C2C (stereo not drawn) [Compound 4, 14-(4-Dimethylamino-3-hydroxy-6-methyl-tetrahydro-pyran-2-yloxy)-5-ethyl-1,6-dihydroxy-2,6,8,9,11,13,15-heptamethyl-4,16-dioxa-9-aza-bicyclo[11.2.1]hexadecane-3,7-dione] |  |  |  |  |  | > 100 |  |  |  |  | > 100 |  |  | 
CCCCCCCCC=CCCCCCCCC(=O)OC1C(OC2C(C)C(=O)C(C)C(=O)OC(CC)C(C)(O)C(OC(=O)CCCCCCCC=CCCCCCCCC)C(C)N(C)CC(C)CC2(C)O)OC(C)CC1N(C)C (stereo not drawn) [Compound 9b] |  |  | 1950 | 2500 | 123 |  | 100 | 112 | 76 | 53 |  | 89 |  | 
CCC1OC(=O)C(C)C(=O)C(C)C(OC2OC(C)CC(NC)C2O)C(C)(O)CC(C)CN(C)C(C)C(O)C1(C)O (stereo not drawn) [Compound 11] |  |  | 1090 | 2340 | 96 |  | 100 | 80 | 53 | 174 |  | 86 | 98 | 
CC[C@H]1OC(=O)[C@H](C)[C@@]2(O)O[C@@](C)(C[C@@H](C)CN[C@H](C)[C@@H](O)[C@]1(C)O)[C@H](O[C@@H]1O[C@H](C)C[C@H](NC)[C@H]1O)[C@H]2C [Compound 14] | 1320 | 1950 |  |  | 95 |  | 100 | 62 | 143 | 153 |  | 93 | 95 | 
CC[C@H]1OC(=O)[C@H](C)[C@@H](O)[C@H](C)[C@@H](O[C@@H]2O[C@H](C)C[C@H](N(C)C)[C@H]2O)[C@](C)(O)C[C@@H](C)CN(C)[C@H](C)[C@@H](O)[C@]1(C)O [decladinosyl azithromycin] |  |  |  |  |  |  |  |  |  |  |  |  |  | ca. 5 fold

Now from value to molecule, other results behind:

IC50 ([4]; Escherichia coli) [µM] | IC50 ([10]; Staphylococcus aureus) [µM] | IC50 [4] [µM] | IC50 [10] [µM] | Compound | Cytokine production in J774 cells as % DMSO control, IL-10 Normal 50 μM [1] [% DMSO control] | TC50 Jurkat [2] [µM] | Jurkat Cell toxicity Normal growth limit [3] [µM] | BALF TNFa (% Vehicle) 20 μmol/kg i.n. [5] [% Vehicle] | Cytokine production in J774 cells as % DMSO control, IL-12 Normal 50 μM [6] [% DMSO control] | Cytokine production in J774 cells as % DMSO control, GM_CSF Cond. 50 μM [7] [% DMSO control] | TC50 HeLa [8] [µM] | Cytokine production in J774 cells as % DMSO control, TNFa Normal 50 μM [9] [% DMSO control] | BALF TNFa (% Vehicle) 200 μmol/kg p.o. [5] [% Vehicle] | antibacterial effectiveness, fold less effective than the cladinosylated molecule [11]
5.5 | 2.25 |  |  | CC[C@H]1OC(=O)[C@H](C)[C@@H](O[C@H]2C[C@@](C)(OC)[C@@H](O)[C@H](C)O2)[C@H](C)[C@@H](O[C@@H]2O[C@H](C)C[C@H](N(C)C)[C@H]2O)[C@](C)(O)C[C@@H](C)CN(C)[C@H](C)[C@@H](O)[C@]1(C)O [Compound 3, 9a-aza-9a-methyl-9-deoxo-9a-homoerythromycin A, reference compound] | 122 | > 100 | 100 | 75 | 60 | 118 | > 100 | 96 |  | 
980 | 2600 |  |  | CCOC(=O)CC1(C)C(=O)O[C@H](CC)[C@@](C)(O)[C@H](O)[C@@H](C)N(C)C[C@H](C)C[C@]2(C)O[C@@]1(O)[C@H](C)[C@H]2O[C@@H]1O[C@H](C)CC(N(C)C)[C@H]1O (stereo partly drawn) [Compound 5, [14-(4-Dimethylamino-3-hydroxy-6-methyl-tetrahydro-pyran-2-yloxy)-5-ethyl-1,6,7-trihydroxy-2,6,8,9,11,13,15-heptamethyl-3-oxo-4,16-dioxa-9-aza-bicyclo[11.2.1]hexadec-2-yl]-acetic acid ethyl ester] | 95 | > 100 | 100 | 90 | 7 | 114 |  | 39 |  | 
1090 | 1920 |  |  | CC[C@H]1OC(=O)[C@H](C)C(O)[C@H](C)[C@@H](O[C@@H]2O[C@H](C)CC([N+](C)(C)[O-])[C@H]2O)[C@](C)(O)C[C@@H](C)C[N+](C)([O-])[C@H](C)[C@@H](O)[C@]1(C)O (stereo partly drawn) [Compound 5b] | 116 |  | 100 | 56 | 67 | 81 |  | 88 |  | 
1270 | 1970 |  |  | CC[C@H]1OC(=O)[C@H](C)C(=O)[C@H](C)[C@@H](O[C@@H]2O[C@H](C)CC(N(C)C)[C@H]2OC(C)=O)[C@](C)(O)C[C@@H](C)CN(C)[C@H](C)[C@@H](O)[C@]1(C)O (stereo partly drawn) [Compound 8] | 134 |  | 100 | 81 | 45 | 83 |  | 85 | 67 | 
 |  | 2140 | 1570 | CC[C@H]1OC(=O)[C@H](C)C(O)[C@H](C)[C@@H](O[C@@H]2O[C@H](C)C[C@H](N(C)C)[C@H]2O)/C(C)=C/[C@@H](C)CN(C)[C@H](C)[C@@H](O)[C@]1(C)O (stereo partly drawn) [Compound 13] | 98 |  | 100 | 78 | 47 | 193 |  | 99 |  | 
1350 | 1600 |  |  | CC[C@H]1OC(=O)[C@H](C)C(=O)[C@H](C)[C@@H](O[C@@H]2O[C@H](C)CC(N(C)C)[C@H]2O)[C@](C)(O)C[C@@H](C)CN(C)[C@H](C)[C@H]2OC(=O)O[C@@]21C (stereo partly drawn) [Example 10] | 118 |  | 100 | 99 | 40 | 14 |  | 72 |  | 
